± gives the expanded uncertainty stated by the source.
experiment: refractive index (Na D-line) (dimensionless); details: 298.15 K; 101.33 kPa; Liquid; Standard Abbe refractometry

refractive index	Structure (SMILES)
1.4584 ± 0.0012	CC(=O)[O-].C[NH2+]CCO [N-methyl-2-hydroxyethylammonium acetate]
1.4555 ± 0.0012	CCCC(=O)[O-].C[NH2+]CCO [N-methyl-2-hydroxyethylammonium butanoate]
1.4563 ± 0.0012	CCCCCC(=O)[O-].C[NH2+]CCO [N-methyl-2-hydroxyethylammonium hexanoate]
1.4196 ± 0.0007	CCCCCCCCCCCC [dodecane]

Source: the NIST ThermoML archive (doi:10.1021/je200799u)
